Source: the OligoGym collection
Only the 19 paired bases of each siRNA are shown; overhangs and chemistry are not given here.

target: firefly luciferase; experiment: five studies, different assays; settings: siRNA
Also: test concentration or dose not given here.

| Substance | target inhibition |
| --- | --- |
| sense AAAAAGAGAUCGUGGAUUA / antisense UAAUCCACGAUCUCUUUUU | 91.2% |
| sense AAAAAGUUGCGCGGAGGAG / antisense CUCCUCCGCGCAACUUUUU | 38.8% |
| sense AAAACAUAAAGAAAGGCCC / antisense GGGCCUUUCUUUAUGUUUU | 11.1% |
| sense AAAACUCGACGCAAGAAAA / antisense UUUUCUUGCGUCGAGUUUU | 94.6% |
| sense AAAAUCAGAGAGAUCCUCA / antisense UGAGGAUCUCUCUGAUUUU | 88.4% |
| sense AAAGACGAUGACGGAAAAA / antisense UUUUUCCGUCAUCGUCUUU | 73.9% |
| sense AAAGAGAUCGUGGAUUACG / antisense CGUAAUCCACGAUCUCUUU | 47.4% |
| sense AAAGGUCUUACCGGAAAAC / antisense GUUUUCCGGUAAGACCUUU | 71.1% |
| sense AAAGUUGCGCGGAGGAGUU / antisense AACUCCUCCGCGCAACUUU | 95.5% |
| sense AACAACCGCGAAAAAGUUG / antisense CAACUUUUUCGCGGUUGUU | -5.7% |
| sense AACAUAAAGAAAGGCCCGG / antisense CCGGGCCUUUCUUUAUGUU | 7.6% |
| sense AACUCGACGCAAGAAAAAU / antisense AUUUUUCUUGCGUCGAGUU | 90.2% |
| sense AACUUCCCGCCGCCGUUGU / antisense ACAACGGCGGCGGGAAGUU | 18.4% |
| sense AAGAAAAAUCAGAGAGAUC / antisense GAUCUCUCUGAUUUUUCUU | 68.1% |
| sense AAGGCCCGGCGCCAUUCUA / antisense UAGAAUGGCGCCGGGCCUU | 23% |
| sense AAGUAACAACCGCGAAAAA / antisense UUUUUCGCGGUUGUUACUU | 76.6% |
| sense AAGUACCGAAAGGUCUUAC / antisense GUAAGACCUUUCGGUACUU | 64.3% |
| sense AAUCAGAGAGAUCCUCAUA / antisense UAUGAGGAUCUCUCUGAUU | 91.7% |
| sense ACCGAAAGGUCUUACCGGA / antisense UCCGGUAAGACCUUUCGGU | 94.7% |
| sense ACCGCGAAAAAGUUGCGCG / antisense CGCGCAACUUUUUCGCGGU | 29.9% |
| sense ACGAUGACGGAAAAAGAGA / antisense UCUCUUUUUCCGUCAUCGU | 80.7% |
| sense ACGCAAGAAAAAUCAGAGA / antisense UCUCUGAUUUUUCUUGCGU | 87.6% |
| sense ACGCCAAAAACAUAAAGAA / antisense UUCUUUAUGUUUUUGGCGU | 94.9% |

| Substance | target inhibition |
| --- | --- |
| sense ACGGAAAAAGAGAUCGUGG / antisense CCACGAUCUCUUUUUCCGU | 58.8% |
| sense ACGGAAAGACGAUGACGGA / antisense UCCGUCAUCGUCUUUCCGU | 73.8% |
| sense ACGUCGCCAGUCAAGUAAC / antisense GUUACUUGACUGGCGACGU | 84.1% |
| sense ACGUGCAAAAAAAGCUCCC / antisense GGGAGCUUUUUUUGCACGU | 30% |
| sense AGACGAUGACGGAAAAAGA / antisense UCUUUUUCCGUCAUCGUCU | 93.1% |
| sense AGAGAGAUCCUCAUAAAGG / antisense CCUUUAUGAGGAUCUCUCU | 92.6% |
| sense AGAGAUCCUCAUAAAGGCC / antisense GGCCUUUAUGAGGAUCUCU | 38.7% |
| sense AGAGAUCGUGGAUUACGUC / antisense GACGUAAUCCACGAUCUCU | 82.8% |
| sense AGAUCCUCAUAAAGGCCAA / antisense UUGGCCUUUAUGAGGAUCU | 78.2% |
| sense AGAUCGUGGAUUACGUCGC / antisense GCGACGUAAUCCACGAUCU | 67% |
| sense AGGAGUUGUGUUUGUGGAC / antisense GUCCACAAACACAACUCCU | 87.5% |
| sense AGGUCUUACCGGAAAACUC / antisense GAGUUUUCCGGUAAGACCU | 90.1% |
| sense AGUCAAGUAACAACCGCGA / antisense UCGCGGUUGUUACUUGACU | 88.5% |
| sense AGUUGCAGUUGCGCCCGCG / antisense CGCGGGCGCAACUGCAACU | 37.3% |
| sense AGUUGCGCGGAGGAGUUGU / antisense ACAACUCCUCCGCGCAACU | 93.6% |
| sense AUCCGCUGGAAGAUGGAAC / antisense GUUCCAUCUUCCAGCGGAU | 23.4% |
| sense AUCCUCAUAAAGGCCAAGA / antisense UCUUGGCCUUUAUGAGGAU | -12.8% |
| sense AUCGUGGAUUACGUCGCCA / antisense UGGCGACGUAAUCCACGAU | 44.2% |
| sense AUGGAACCGCUGGAGAGCA / antisense UGCUCUCCAGCGGUUCCAU | 35.4% |
| sense AUUAUCAUGGAUUCUAAAA / antisense UUUUAGAAUCCAUGAUAAU | 55.5% |
| sense CAAAUACGAUUUAUCUAAU / antisense AUUAGAUAAAUCGUAUUUG | 87.8% |
| sense CAACCGCGAAAAAGUUGCG / antisense CGCAACUUUUUCGCGGUUG | -1.3% |
| sense CAUUCUAUCCGCUGGAAGA / antisense UCUUCCAGCGGAUAGAAUG | 93.2% |

| Substance | target inhibition |
| --- | --- |
| sense CCAAUCAUCCAAAAAAUUA / antisense UAAUUUUUUGGAUGAUUGG | 97.5% |
| sense CCAGUCAAGUAACAACCGC / antisense GCGGUUGUUACUUGACUGG | 66.1% |
| sense CCCGCCGCCGUUGUUGUUU / antisense AAACAACAACGGCGGCGGG | 42.3% |
| sense CCGCCGCCGUUGUUGUUUU / antisense AAAACAACAACGGCGGCGG | 60.8% |
| sense CCGCGAACGACAUUUAUAA / antisense UUAUAAAUGUCGUUCGCGG | 94.9% |
| sense CCGGAAAACUCGACGCAAG / antisense CUUGCGUCGAGUUUUCCGG | 94.9% |
| sense CCGGAUACUGCGAUUUUAA / antisense UUAAAAUCGCAGUAUCCGG | 96.3% |
| sense CCGGUUAUGUAAACAAUCC / antisense GGAUUGUUUACAUAACCGG | 41.6% |
| sense CCGUUGUUGUUUUGGAGCA / antisense UGCUCCAAAACAACAACGG | 89.3% |
| sense CCUCCCGGUUUUAAUGAAU / antisense AUUCAUUAAAACCGGGAGG | 73.5% |
| sense CCUUCAGGAUUACAAGAUU / antisense AAUCUUGUAAUCCUGAAGG | 98.9% |
| sense CGAAAAAGUUGCGCGGAGG / antisense CCUCCGCGCAACUUUUUCG | 78.6% |
| sense CGAAAGGUCUUACCGGAAA / antisense UUUCCGGUAAGACCUUUCG | 95% |
| sense CGAAGUACCGAAAGGUCUU / antisense AAGACCUUUCGGUACUUCG | 93.1% |
| sense CGACGCAAGAAAAAUCAGA / antisense UCUGAUUUUUCUUGCGUCG | 95.9% |
| sense CGCCAGUCAAGUAACAACC / antisense GGUUGUUACUUGACUGGCG | 79.5% |
| sense CGCCGCCGUUGUUGUUUUG / antisense CAAAACAACAACGGCGGCG | 51.3% |
| sense CGCCGUUGUUGUUUUGGAG / antisense CUCCAAAACAACAACGGCG | 74.8% |
| sense CGCGAAAAAGUUGCGCGGA / antisense UCCGCGCAACUUUUUCGCG | 32.1% |
| sense CGGCGCCAUUCUAUCCGCU / antisense AGCGGAUAGAAUGGCGCCG | 53.8% |
| sense CGUGGAUUACGUCGCCAGU / antisense ACUGGCGACGUAAUCCACG | 87.1% |
| sense CUCGACGCAAGAAAAAUCA / antisense UGAUUUUUCUUGCGUCGAG | 91% |
| sense CUUACCGGAAAACUCGACG / antisense CGUCGAGUUUUCCGGUAAG | 94.3% |

| Substance | target inhibition |
| --- | --- |
| sense CUUCCCGCCGCCGUUGUUG / antisense CAACAACGGCGGCGGGAAG | 47.2% |
| sense GAAAAAUCAGAGAGAUCCU / antisense AGGAUCUCUCUGAUUUUUC | 86.8% |
| sense GAAGUCUCUGAUUAAGUAC / antisense GUACUUAAUCAGAGACUUC | 34.7% |
| sense GACAAAUACGAUUUAUCUA / antisense UAGAUAAAUCGUAUUUGUC | 86.5% |
| sense GACGAAGUACCGAAAGGUC / antisense GACCUUUCGGUACUUCGUC | 89.7% |
| sense GACGCCAAAAACAUAAAGA / antisense UCUUUAUGUUUUUGGCGUC | 85.8% |
| sense GAGCACGGAAAGACGAUGA / antisense UCAUCGUCUUUCCGUGCUC | 20.3% |
| sense GAGUUGUGUUUGUGGACGA / antisense UCGUCCACAAACACAACUC | 95.3% |
| sense GAUAUGGGCUGAAUACAAA / antisense UUUGUAUUCAGCCCAUAUC | 91.9% |
| sense GAUGACGGAAAAAGAGAUC / antisense GAUCUCUUUUUCCGUCAUC | 47.6% |
| sense GAUGAUAAACCGGGCGCGG / antisense CCGCGCCCGGUUUAUCAUC | 52.9% |
| sense GAUUACGUCGCCAGUCAAG / antisense CUUGACUGGCGACGUAAUC | 96% |
| sense GAUUAUGUCCGGUUAUGUA / antisense UACAUAACCGGACAUAAUC | 96.8% |
| sense GAUUUCGAGUCGUCUUAAU / antisense AUUAAGACGACUCGAAAUC | 98.9% |
| sense GCAAGAAAAAUCAGAGAGA / antisense UCUCUCUGAUUUUUCUUGC | 95.1% |
| sense GCACGGAAAGACGAUGACG / antisense CGUCAUCGUCUUUCCGUGC | 39.2% |
| sense GCACUCUGAUUGACAAAUA / antisense UAUUUGUCAAUCAGAGUGC | 93% |
| sense GCAUGCCAGAGAUCCUAUU / antisense AAUAGGAUCUCUGGCAUGC | 94.5% |
| sense GCCGCCGUUGUUGUUUUGG / antisense CCAAAACAACAACGGCGGC | 13.8% |
| sense GCCUGAAGUCUCUGAUUAA / antisense UUAAUCAGAGACUUCAGGC | 95.6% |
